Assay: Lipophilicity, log D of the compound at pH 7.4
Assay type: physicochemical
Settings: buffer

logD: 2.7
SMILES: CC(=O)Nc1cc(Nc2c(Cl)ccc3c2OCO3)ccn1

Reference: ChEMBL document CHEMBL3817795, “Identification and optimisation of a series of N-(4-anilino-2-pyridyl)acetamide activin receptor-like kinase 1 (ALK1) inhibitors” (Medchemcomm, 2016)
